Results: patent US20100292231A1, “Indazole Compounds for Treating Inflammatory Disorders, Demyelinating Disorders and Cancers” (priority 2007, published 2010)
pEC50, pIC50: −log10 of the molar value.

Assays:
FLT3 = target: T1, FLT3 (Homo sapiens, UniProt P36888); assay: SelectScreen FLT3 kinase dose response assay; type: biochemical; details: ATP 100 micromolar; for pEC50: dose response, 4 parameter Hill equation, read-out: FLT3 Inhibition EC50
T1 construct: purchased Invitrogen (SelectScreen platform)
T1 sequence (P36888 27-993): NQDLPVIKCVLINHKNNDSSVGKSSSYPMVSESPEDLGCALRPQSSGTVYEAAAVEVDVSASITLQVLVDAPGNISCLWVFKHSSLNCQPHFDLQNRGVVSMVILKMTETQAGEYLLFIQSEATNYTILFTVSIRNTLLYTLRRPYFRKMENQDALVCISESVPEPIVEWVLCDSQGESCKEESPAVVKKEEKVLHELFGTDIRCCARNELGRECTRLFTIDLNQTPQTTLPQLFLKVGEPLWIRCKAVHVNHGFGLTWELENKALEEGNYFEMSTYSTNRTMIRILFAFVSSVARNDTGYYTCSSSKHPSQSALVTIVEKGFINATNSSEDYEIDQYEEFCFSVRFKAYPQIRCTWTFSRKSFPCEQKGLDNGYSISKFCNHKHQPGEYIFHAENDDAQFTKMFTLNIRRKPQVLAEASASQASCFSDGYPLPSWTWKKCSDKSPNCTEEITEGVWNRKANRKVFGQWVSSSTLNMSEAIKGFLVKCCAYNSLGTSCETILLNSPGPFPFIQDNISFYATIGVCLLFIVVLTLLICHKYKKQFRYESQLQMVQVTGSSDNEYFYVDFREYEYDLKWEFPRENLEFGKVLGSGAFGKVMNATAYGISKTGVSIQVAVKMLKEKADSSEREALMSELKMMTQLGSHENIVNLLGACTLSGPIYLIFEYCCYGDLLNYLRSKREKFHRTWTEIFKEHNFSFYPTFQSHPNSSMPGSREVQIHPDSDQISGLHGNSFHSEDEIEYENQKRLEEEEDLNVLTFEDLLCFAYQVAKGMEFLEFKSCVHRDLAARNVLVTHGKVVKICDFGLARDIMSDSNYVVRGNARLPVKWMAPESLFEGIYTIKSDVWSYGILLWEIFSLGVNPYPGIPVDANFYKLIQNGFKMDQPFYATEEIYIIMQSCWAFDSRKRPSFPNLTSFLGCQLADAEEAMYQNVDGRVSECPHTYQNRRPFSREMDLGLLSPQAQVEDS
Protocol: The terms “IC50” and “EC50” are used interchangeably. As used herein, “EC50” refers to nMolar concentration at median percent inhibition determined by dose respose (DR) assay. As used herein, the term “E1000” refers to percent inhibition at 1000 nMolar determined by assay.
Testing of the compounds described in this invention was carried out using the SelectScreen™ platform from Invitrogen, Inc. (Carlsbad. Calif., USA) and the details of its performance are readily viewed via the web by linking to: http://www.invitrogen.com/downloads/SelectScrn_Brochure.pdf.
Briefly, the approach is based on treating each specific kinase with a unique substrate and optical reporter system in the presence of ATP at 100 micromolar. In controls, the substrate is phosphorylated and a baseline optimal response is recorded.
The compounds were then re-tested by adding graded amounts of putative inhibitor which were added in 5 separate increments to generate a dose response curve. The latter is obtained by fitting to a 4 parameter Hill equation, a sigmoid saturation equation.
For the compounds of this invention, the experimental conditions were as follows. The 2× FLT3/Tyr 02 peptide mixture was prepared in 50 mM HEPES pH 7.5, 0.01 BRIJ-35, 10 mM MgCl2, 1 mM EGTA. The final 10 uL kinase reaction consists of 0.6-76.0 ng FLT3 and 2 uM Tyr 02 peptide in 50 mM HEPES pH 7.5, 0.01% BRIJ-35, 10 mM MgCl2, 1 mM EGTA. After 1 hour kinase reaction incubation, 5 uL of a 1:64 dilution of development reagent A was added.

[1] = tested on: Raw264.7 (murine macrophage-like cells); assay: sulforhodamine B (SRB) cytotoxicity assay; type: cell-based; details: Mus musculus, RAW264.7, 144 h; 25 μM highest concentration, diluted 1:5; 6 days; read-out: IC50 Measured Against Raw264.7 Cell Line

Structure (SMILES)	inhibition at 1 µM (FLT3; 1000 nMolar compound, read-out: FLT3 Inhibition E1000 (percent inhibition at 1000 nMolar))	pEC50 (FLT3)	FLT3 Inhibition E1000 (percent inhibition at 1000 nMolar) (FLT3; 1000 nMolar compound)	pIC50 [1]
O=c1c2c(F)ccc3ncn(c4ccc5[nH]ncc5c14)c32 [(XVIII)]	47%	5.88		
Cc1nc2cc3nc(-c4cccs4)cnc3cc2n1C [AGL-2043, reference compound]		7.42	93%	
c1ccc(-c2n[nH]c3c2oc2ccccc23)cc1 [GTP-14564, reference compound]		7.59	95%	
CCN(CC)CCNC(=O)c1c(C)[nH]c(/C=C2\C(=O)Nc3ccc(F)cc32)c1C [Sunitinib, sunitinib, reference compound]				6.12
